Data taken from article PMC10222686, “Synthesis and Molecular Docking Studies of Alkoxy- and Imidazole-Substituted Xanthones as α-Amylase and α-Glucosidase Inhibitors” (Molecules, 2023).

Tests used:
α-amylase = molecular target: T1, α-amylase (Sus scrofa, UniProt P00690); assay: α-Amylase inhibition assay (starch/DNS); assay type: biochemical, porcine; conditions: mean ± SD, n = 4; for inhibition at 100 µM: NI = no inhibition; for IC50: compounds precipitate at 200 µM;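 as to all read-outs here: reducing sugar measured by DNS colour at 540 nm, inhibition relative to enzyme reaction lacking test compound, blank without enzyme subtracted for background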
T1 construct: purchased Sigma-Aldrich; host or cells: porcine pancreas
T1 sequence (P00690 16-511): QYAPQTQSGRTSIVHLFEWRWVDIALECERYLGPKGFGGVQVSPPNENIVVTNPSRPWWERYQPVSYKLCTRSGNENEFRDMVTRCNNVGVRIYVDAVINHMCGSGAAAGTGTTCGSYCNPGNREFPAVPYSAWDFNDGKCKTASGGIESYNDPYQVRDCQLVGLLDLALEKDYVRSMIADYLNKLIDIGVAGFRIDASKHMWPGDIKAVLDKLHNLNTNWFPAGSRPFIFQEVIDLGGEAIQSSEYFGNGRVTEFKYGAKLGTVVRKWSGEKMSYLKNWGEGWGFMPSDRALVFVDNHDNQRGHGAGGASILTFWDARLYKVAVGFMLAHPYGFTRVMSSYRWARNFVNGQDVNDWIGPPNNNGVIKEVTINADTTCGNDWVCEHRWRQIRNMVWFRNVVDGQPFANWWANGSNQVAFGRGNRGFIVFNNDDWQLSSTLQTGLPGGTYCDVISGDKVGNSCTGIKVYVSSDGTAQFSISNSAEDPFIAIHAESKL
Method: α-Amylase inhibitory activity was quantified according to the method developed by Chokki et al., with some modifications [65]. […] Finally, 100 µL of 3,5-dinitrosalicylic acid (DNS) was added and heated at 100 °C for 20 min, and absorbance was then read at 540 nm in a microplate reader (Epoch, BioTek®). The reaction system without any test compound was used as the control, and the system without α-amylase served as a blank for correcting background absorbance. The percentage of α-amylase inhibition was calculated for each sample with Equation (2):(2) % inhibition=Control absorbance−sample absorbance/Control absorbance×100
(§1) All measurements were performed in quadruplicate and the values are expressed as the mean ± standard deviation.

α-glucosidase = assay: α-Glucosidase inhibition assay (p-NPG substrate); assay type: biochemical, Saccharomyces cerevisiae; conditions: mean ± SD, n = 4
Method: The inhibitory activity of the compounds on α-glucosidase inhibition was quantified according to the method described by Salehi et al., with slight modifications [64]. A reaction was prepared by mixing 20 µL α-glucosidase solution (0.5 unit/mL), 120 µL 0.1 M phosphate buffer (pH 6.9), and 10 µL of the samples at concentrations from 400 µM to 4.0 µM. The solution was incubated in a 96-well microplate at 37 °C for 15 min. The enzymatic reaction was initiated by adding 20 µL of 5 mM p-NPG solution to 0.1 M phosphate buffer (pH 6.9), followed by incubation at 37 °C for 15 min. The reaction was stopped by adding 80 µL of 0.2 M sodium carbonate solution, and absorbance was read at 405 nm in a microplate reader (Epoch®, BioTek Instrument, Winooski, EUA). The reaction system without any test compounds was used as control, whereas the system without α-glucosidase served as blank for correcting background absorbance. The rate of α-glucosidase inhibition exerted by each sample was calculated with Equation (1):(1) % inhibition=Control absorbance−sample absorbance/Control absorbance×100
as §1

[1] = DPPH radical scavenging assay; conditions: mean ± SD, n = 4
Method: The scavenging of free radicals by the synthesized compounds was assessed based on the previously reported DPPH radical assay, with slight modifications. The reaction mixture consisted of 50 µL of compound in DMSO at various concentrations (from 2.5 mM to 0.2 mM) and 150 µL of DPPH solution at 133.33 µM in absolute ethanol. The reaction components were added at a ratio of 1:3 (v/v). The mixture was incubated at 37 °C for 30 min before absorbance was read at 517 nm using a microplate reader (Epoch, BioTek®). Butylhydroxytoulene (BHT) served as the positive control. Scavenging capacity (%) is expressed as the percentage decrease in DPPH. SC% = [(Acontrol − Atest)/Acontrol] × 100 where Acontrol is absorbance of the DPPH solution (control) and Atest is the absorbance of the solution of DPPH and one of the compounds.

Row | inhibition at 100 µM (α-amylase) | α-Glucosidase Inhibition (%) at 400 µM (α-glucosidase) | IC50 (α-amylase) | IC50 (α-glucosidase) | melting point | SMILES | % DPPH Scavenging Activity (2.5 mM) [1]
1 | – | – | – | – | – | Cc1cc(C(C)(C)C)c(O)c(C(C)(C)C)c1 [BHT, butylhydroxytoluene, reference compound] | 85.2 ± 3.33 ^A‡ %
2 | 98.7 ± 0.11% | 26.5 ± 0.81% | 26.5 ± 0.01 µM | > 400 µM | – | COc1cc2oc3ccccc3c(=O)c2cc1O [Compound 1, 2-Hydroxy-3-methoxy-9H-xanthen-9-one] | –
3 | < 0% | 15.2 ± 0.16% | – | > 400 µM | – | COC(=O)/C(=C/N(C)C)Oc1cc2c(=O)c3ccccc3oc2cc1OC [Compound 5, Methyl (Z)-3-(dimethylamino)-2-((3-methoxy-9-oxo-9H-xanthen-2-yl)oxy)acrylate] | 13.9 ± 1.14 ^E,F %
4 | 8.7 ± 0.2% | 99.5 ± 0.2% | > 200 µM | 143.6 ± 0.17 µM | 139 to 140 °C | COC(=O)COc1cc2c(=O)c3ccccc3oc2cc1OC [Compound 6a, Methyl 2-((3-methoxy-9-oxo-9H-xanthen-2-yl)oxy)acetate] | 1.7 ± 0.91 ^H,I %
5 | – | 9.3 ± 0.1% | – | > 400 µM | 144 to 145 °C | COc1cc2oc3ccccc3c(=O)c2cc1OCC(C)=O [Compound 6b, 3-Methoxy-2-(2-oxopropoxy)-9H-xanthen-9-one] | 11.8 ± 1.07 ^F,G %
6 | < 0% | 22.1 ± 1.04% | – | > 400 µM | 150 to 151 °C | C=CCOc1cc2c(=O)c3ccccc3oc2cc1OC [Compound 6d, 2-(Allyloxy)-3-methoxy-9H-xanthen-9-one] | 3.9 ± 0.58 ^H,I %
7 | 60.3 ± 0.1% | 98.6 ± 0.90% | 68.1 ± 0.04 µM | 12.8 ± 0.01 µM | – | C=CCc1c(OCC(=O)c2ccc(Cl)cc2)c(OC)cc2oc3ccccc3c(=O)c12 [Compound 6e, 1-Allyl-2-(2-(4-chlorophenyl)-2-oxoethoxy)-3-methoxy-9H-xanthen-9-one] | 10.4 ± 0.83 ^F,G %
8 | 7.8 ± 0.1% | 75.5 ± 0.50% | > 200 µM | 196.4 ± 0.07 µM | – | C=CCc1c(O)c(OC)cc2oc3ccccc3c(=O)c12 [Compound 7, 1-Allyl-2-hydroxy-3-methoxy-9H-xanthen-9-one] | 45.9 ± 2.89 ^B† %
9 | < 0% | 38.3 ± 0.04% | – | > 400 µM | – | COc1cc2oc3ccccc3c(=O)c2c2c1OC(C)(C)C=C2 [Compound 8, 5-Methoxy-3,3-dimethylpyrano[3,2-a]xanthen-12(3H)-one] | 1.9 ± 0.73 ^H,I %
10 | < 0% | 0.48 ± 0.02% | – | > 400 µM | 143 to 144 °C | COc1cc2oc3ccccc3c(=O)c2cc1OCC1CO1 (stereo not shown) [Compound 11a, 3-Methoxy-2-(oxiran-2-ylmethoxy)-9H-xanthen-9-one] | 19.8 ± 1.04 ^D %
11 | 7.8 ± 0.5% | 99.7 ± 0.29% | > 200 µM | 120 ± 0.03 µM | 115 to 116 °C | C=CCc1c(OCC2CO2)c(OC)cc2oc3ccccc3c(=O)c12 (stereo not shown) [Compound 11b, 1-Allyl-3-methoxy-2-(oxiran-2-ylmethoxy)-9H-xanthen-9-one] | 18.4 ± 1.43 ^D %
12 | < 0% | 1.87 ± 0.47% | – | > 400 µM | 146 to 148 °C | COc1cc2oc3ccccc3c(=O)c2cc1OCC(O)Cn1ccnc1 (stereo not shown) [Compound 12a, 2-(2-Hydroxy-3-(1H-imidazol-1-yl)propoxy)-3-methoxy-9H-xanthen-9-one] | 1.1 ± 0.01 ^I %
13 | 8.7 ± 0.81% | 84.9 ± 0.57% | > 200 µM | 112.8 ± 0.12 µM | 157 to 159 °C | COc1cc2oc3ccccc3c(=O)c2cc1OCC(O)Cn1ccnc1-c1ccccc1 (stereo not shown) [Compound 12b, 2-(2-Hydroxy-3-(2-phenyl-1H-imidazol-1-yl)propoxy)-3-methoxy-9H-xanthen-9-one] | 16.3 ± 1.45 ^D,E %
14 | 3.9 ± 0.55% | 97.5 ± 1.78% | > 200 µM | 210.9 ± 0.33 µM | 235 °C (dec.) | COc1cc2oc3ccccc3c(=O)c2cc1OCC(O)Cn1ccnc1-c1ccc(Cl)cc1 (stereo not shown) [Compound 12c, 2-(3-(2-(4-Chlorophenyl)-1H-imidazol-1-yl)-2-hydroxypropoxy)-3-methoxy-9H-xanthen-9-one] | 19.0 ± 0.22 ^D %

Row | SMILES | inhibition at 100 µM (α-amylase) | α-Glucosidase Inhibition (%) at 400 µM (α-glucosidase) | IC50 (α-amylase) | IC50 (α-glucosidase) | melting point | % DPPH Scavenging Activity (2.5 mM) [1]
15 | C[C@H]1O[C@H](O[C@H]2[C@H](O)[C@@H](O)[C@@H](O[C@H]3[C@H](O)[C@@H](O)C(O)O[C@@H]3CO)O[C@@H]2CO)[C@H](O)[C@@H](O)[C@@H]1N[C@H]1C=C(CO)[C@@H](O)[C@H](O)[C@H]1O (stereo partly shown) [Acarbose, acarbose, reference compound] | 99.3 ± 0.06% | 63.18 ± 0.7% | – | – | – | –
16 | COc1cc2oc3ccccc3c(=O)c2cc1OCCCCBr [Compound 9a, 2-(4-Bromobutoxy)-3-methoxy-9H-xanthen-9-one] | 62.9 ± 0.2% | 97.8 ± 0.3% | 73.5 ± 0.04 µM | 40 ± 0.018 µM | – | 19.5 ± 1.22 ^D %
17 | COc1cc2oc3ccccc3c(=O)c2cc1OCCCCn1ccnc1 [Compound 10a, 2-(4-(1H-imidazol-1-yl)butoxy)-3-methoxy-9H-xanthen-9-one] | < 0% | 1.3 ± 0.01% | – | > 400 µM | 137 to 138 °C | 0.8 ± 0.01 ^I %
18 | COc1cc2oc3ccccc3c(=O)c2cc1OCCCCn1ccnc1-c1ccccc1 [Compound 10b, 3-Methoxy-2-(4-(2-phenyl-1H-imidazol-1-yl)butoxy)-9H-xanthen-9-one] | 9.7 ± 0.21% | 90.2 ± 0.21% | > 200 µM | 212.4 ± 0.1 µM | 132 to 134 °C | 12.2 ± 0.08 ^F,G %
19 | C=CCc1c(OCCCCn2ccnc2)c(OC)cc2oc3ccccc3c(=O)c12 [Compound 10d, 2-(4-(1H-Imidazol-1-yl)butoxy)-1-allyl-3-methoxy-9H-xanthen-9-one] | < 0% | 2.5 ± 0.01% | – | > 400 µM | – | 5.1 ± 0.08 ^H %
20 | C=CCc1c(OCCCCn2ccnc2-c2ccc(Cl)cc2)c(OC)cc2oc3ccccc3c(=O)c12 [Compound 10f, 1-Allyl-2-(4-(2-(4-chlorophenyl)-1H-imidazol-1-yl)butoxy)-3-methoxy-9H-xanthen-9-one] | 93.3 ± 0.12% | 99.4 ± 0.51% | 8.7 ± 0.06 µM | 145.2 ± 0.17 µM | 90 to 92 °C | 11.2 ± 1.02 ^F,G %
